From patent US5096901A, “Pharmacologically active amides and esters containing an azabicycloalkane moiety” (John Wyeth & Brother Limited, priority 1989, dated 1992)

Molecular target: T1, 5-HT3 receptors (Rattus norvegicus, UniProt P35563)
T1 sequence (P35563 24-483): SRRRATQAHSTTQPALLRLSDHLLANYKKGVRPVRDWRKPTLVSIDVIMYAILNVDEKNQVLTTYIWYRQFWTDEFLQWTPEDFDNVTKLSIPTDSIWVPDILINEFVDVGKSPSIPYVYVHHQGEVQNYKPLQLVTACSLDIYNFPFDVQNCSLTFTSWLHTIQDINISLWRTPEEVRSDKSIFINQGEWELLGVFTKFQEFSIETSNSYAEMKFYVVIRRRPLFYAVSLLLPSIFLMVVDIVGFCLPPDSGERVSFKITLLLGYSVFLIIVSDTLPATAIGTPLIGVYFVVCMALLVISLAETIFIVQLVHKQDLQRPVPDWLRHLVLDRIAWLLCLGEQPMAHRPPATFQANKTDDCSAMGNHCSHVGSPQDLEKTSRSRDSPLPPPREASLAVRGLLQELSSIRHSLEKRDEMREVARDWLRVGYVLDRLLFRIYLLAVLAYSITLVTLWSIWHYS
Method: The compounds of the invention are tested for 5-HT3 antagonistic activity in the rat vagus by the following procedure:
Segments of the vagus nerve from Sprague-Dawley rats were placed in a perspex chamber and perfused with Krebs solution. Electrodes, positioned at either end of the nerve segment, were used to record the potential differences which ensued upon the addition of various concentrations of 5-HT to one end of the nerve segment. Concentration-response curves to 5-HT were obtained in this manner prior to and following equilibration of the nerve segment with Krebs solution containing the test-substance.

Molecule `CN1[C@@H]2CC[C@H]1C[C@@H](NC(=O)c1cn(C)c3ccccc3c1=O)C2` [Example 1, (Endo)-N-(8-methyl-8-azabicyclo [3.2.1]octan-3-yl)-1,4-dihydro-1-methyl-4-oxoquinoline-3-carboxamide] has a Kb of 3.98 nM.
